According to the supplement of paper PMC11451515:

Test system: SEM cells
Test: cell viability relative to DMSO control; higher = less cytotoxic
Conditions: 48 h
How it was run: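 Viability, reported as a per-plate percentage of DMSO wells with cell-free wells as background, came from CellTiter-Glo One luminescence. Reading took place after 48 h at 37°C. Before that, NOMO1 or SEM (500 cells/well) or P12-Ichikawa (1000 cells/well) leukemia cells, adapted for at least four passages in each medium, were seeded in 1536-well plates (5 μl) and pin-dosed with library compounds in DMSO, 47 μM to 0.79 nM over 11 threefold points.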

[1] = HPLM + 10% dialyzed FBS, 0.000781 µM
[2] = HPLM + 10% dialyzed FBS, 0.00234 µM
[3] = HPLM + 10% dialyzed FBS, 0.00702 µM
[4] = HPLM + 10% dialyzed FBS, 0.0211 µM
[5] = HPLM + 10% dialyzed FBS, 0.0632 µM
[6] = HPLM + 10% dialyzed FBS, 0.19 µM
[7] = HPLM + 10% dialyzed FBS, 0.569 µM
[8] = HPLM + 10% dialyzed FBS, 1.71 µM
[9] = HPLM + 10% dialyzed FBS, 5.12 µM
[10] = HPLM + 10% dialyzed FBS, 15.4 µM
[11] = HPLM + 10% dialyzed FBS, 46.1 µM
[12] = RPMI 5 mM glucose + 10% FBS, 0.000781 µM
[13] = RPMI 5 mM glucose + 10% FBS, 0.00234 µM
[14] = RPMI 5 mM glucose + 10% FBS, 0.00702 µM
[15] = RPMI 5 mM glucose + 10% FBS, 0.0211 µM
[16] = RPMI 5 mM glucose + 10% FBS, 0.0632 µM
[17] = RPMI 5 mM glucose + 10% FBS, 0.19 µM
[18] = RPMI 5 mM glucose + 10% FBS, 0.569 µM
[19] = RPMI 5 mM glucose + 10% FBS, 1.71 µM
[20] = RPMI 5 mM glucose + 10% FBS, 5.12 µM
[21] = RPMI 5 mM glucose + 10% FBS, 15.4 µM
[22] = RPMI 5 mM glucose + 10% FBS, 46.1 µM
[23] = RPMI 5 mM glucose + 10% dialyzed FBS, 0.000781 µM
[24] = RPMI 5 mM glucose + 10% dialyzed FBS, 0.00234 µM
[25] = RPMI 5 mM glucose + 10% dialyzed FBS, 0.00702 µM
[26] = RPMI 5 mM glucose + 10% dialyzed FBS, 0.0211 µM
[27] = RPMI 5 mM glucose + 10% dialyzed FBS, 0.0632 µM
[28] = RPMI 5 mM glucose + 10% dialyzed FBS, 0.19 µM
[29] = RPMI 5 mM glucose + 10% dialyzed FBS, 0.569 µM
[30] = RPMI 5 mM glucose + 10% dialyzed FBS, 1.71 µM
[31] = RPMI 5 mM glucose + 10% dialyzed FBS, 5.12 µM
[32] = RPMI 5 mM glucose + 10% dialyzed FBS, 15.4 µM
[33] = RPMI 5 mM glucose + 10% dialyzed FBS, 46.1 µM

| SMILES | cell viability [1] | cell viability [2] | cell viability [3] | cell viability [4] | cell viability [5] | cell viability [6] | cell viability [7] | cell viability [8] | cell viability [9] | cell viability [10] | cell viability [11] | cell viability [12] | cell viability [13] | cell viability [14] | cell viability [15] | cell viability [16] | cell viability [17] | cell viability [18] | cell viability [19] | cell viability [20] | cell viability [21] | cell viability [22] | cell viability [23] | cell viability [24] | cell viability [25] | cell viability [26] | cell viability [27] | cell viability [28] | cell viability [29] | cell viability [30] | cell viability [31] | cell viability [32] | cell viability [33] |
| --- | --- | --- | --- | --- | --- | --- | --- | --- | --- | --- | --- | --- | --- | --- | --- | --- | --- | --- | --- | --- | --- | --- | --- | --- | --- | --- | --- | --- | --- | --- | --- | --- | --- |
| CCC(=O)OCC(=O)[C@@]1(OC(=O)CC)[C@@H](C)C[C@H]2[C@@H]3CCC4=CC(=O)C=C[C@]4(C)[C@@]3(F)[C@@H](O)C[C@@]21C | 78.1% | 99.1% | 93.2% | 98.5% | 100% | 102% | 84.2% | 90.7% | 91.8% | 70.2% | 61.2% | 104% | 114% | 116% | 114% | 116% | 95.6% | 87.3% | 71.5% | 79.4% | 69.9% | 50.3% | 116% | 115% | 126% | 112% | 115% | 88.5% | 92.6% | 75.3% | 69.7% | 65.9% | 48.8% |
| CC1=CC=CC=C1CN2C(=O)C/3=C(/CCN(CC4=CC=CC=C4)C3)N\5CC\N=C25 | 113% | 121% | 125% | 115% | 117% | 120% | 115% | 110% | 94% | 25.3% | 19.6% | 129% | 119% | 114% | 101% | 114% | 109% | 97.1% | 95.9% | 50.9% | 13.2% | 9.39% | 127% | 121% | 119% | 119% | 141% | 119% | 136% | 133% | 58.4% | 19.6% | 19.8% |
| N=C(N)NC(=O)c1nc(Cl)c(N)nc1N | 101% | 104% | 120% | 111% | 114% | 104% | 136% | 114% | 129% | 124% | 123% | 101% | 107% | 108% | 108% | 118% | 119% | 117% | 113% | 113% | 114% | 120% | 101% | 122% | 110% | 108% | 126% | 124% | 120% | 126% | 119% | 116% | 121% |
| CC[C@H]1/C=C\C=C/C[C@@H](C)[C@H](O)[C@@](C)(O)C(=O)[C@@H](C)[C@H](O)[C@@H](C)C(=O)[C@@H](C)[C@H](O)[C@@H](C)/C=C/C(=O)O[C@@H]2[C@H](C)[C@H](CC1)O[C@]1(CC[C@H](C)[C@H](C[C@@H](C)O)O1)[C@H]2C | 78.7% | 94.1% | 105% | 84.3% | 86.4% | 98.6% | 95.5% | 63.4% | 40.9% | 56.5% | 7.57% | 81.1% | 93.9% | 92.5% | 81.2% | 90.3% | 105% | 97.7% | 58.2% | 28.8% | 34.6% | 7.26% | 90.9% | 97% | 89% | 97.4% | 85.8% | 94.2% | 100% | 54.7% | 43.2% | 36.4% | 8.78% |
| O=C(NC[C@H]1CN(c2ccc(N3CCOCC3=O)cc2)C(=O)O1)c1ccc(Cl)s1 | 89.8% | 107% | 104% | 107% | 104% | 103% | 125% | 108% | 116% | 134% | 118% | 103% | 113% | 120% | 114% | 102% | 117% | 129% | 109% | 117% | 123% | 115% | 109% | 105% | 118% | 98.9% | 116% | 132% | 120% | 129% | 136% | 134% | 122% |
| Clc1cc(Cl)cc(CNc2ncncc2-c2ccc3c(c2)OCO3)c1 | 93.3% | 101% | 95.7% | 97.4% | 89% | 104% | 92.2% | 105% | 90.4% | 89.1% | 29.7% | 100% | 97.4% | 98.4% | 94.5% | 92.7% | 110% | 103% | 86.6% | 92.3% | 86.6% | 5.5% | 90.5% | 95.3% | 102% | 99.7% | 90.5% | 96.8% | 80.4% | 100% | 105% | 86.2% | 28.3% |
| CN1CCC(CC1)COC2=CN=C(N=C2)C3=CC(=CC=C3)CN4/N=C(\C=C/C4=O)C5=CC(=CC=C5)C#N | 78.8% | 105% | 98% | 102% | 112% | 117% | 108% | 104% | 107% | 89.9% | 92.7% | 67.6% | 87.1% | 85.4% | 66.2% | 67.5% | 75.6% | 79.9% | 74.7% | 66.5% | 74.9% | 73.2% | 69.8% | 103% | 110% | 114% | 99.2% | 91.4% | 115% | 104% | 106% | 87.3% | 105% |
